Where two headings read alike, the source gives them in different places.

In patent US12421210B2, “Fused bicyclic heterocycles as therapeutic agents” (NEW YORK UNIVERSITY, priority 2018, dated 2025) one finds IC50 data, which are given here for 31 compounds.

This assay addresses human NAMPT enzyme (His-hNAMPT) (Homo sapiens (Human), UniProt P43490). Kind of assay: NAMPT enzymatic inhibition assay (fluorescence, NADH product). Type of assay: biochemical.
Setting [1] is: [HDB], read-out: NAMPT IC50 (μM) [HDB].
The mark [2] stands for this setting: [BPS], read-out: NAMPT IC50 (μM) [BPS].

human NAMPT enzyme (His-hNAMPT), sequence (P43490 whole entry): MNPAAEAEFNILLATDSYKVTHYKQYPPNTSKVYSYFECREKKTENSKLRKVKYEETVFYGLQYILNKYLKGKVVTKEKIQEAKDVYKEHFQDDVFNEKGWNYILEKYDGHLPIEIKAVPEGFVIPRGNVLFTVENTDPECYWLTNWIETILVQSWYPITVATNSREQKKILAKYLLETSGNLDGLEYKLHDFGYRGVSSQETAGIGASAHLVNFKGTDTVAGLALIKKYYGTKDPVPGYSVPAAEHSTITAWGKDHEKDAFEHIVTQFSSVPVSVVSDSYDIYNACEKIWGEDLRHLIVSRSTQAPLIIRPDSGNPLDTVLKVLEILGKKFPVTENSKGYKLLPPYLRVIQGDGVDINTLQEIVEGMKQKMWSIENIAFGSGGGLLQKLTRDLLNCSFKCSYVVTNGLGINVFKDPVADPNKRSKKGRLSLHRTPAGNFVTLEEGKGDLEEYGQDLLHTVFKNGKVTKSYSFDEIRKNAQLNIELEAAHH

As to `O=C(NCC[C@@H]1[C@H]2CN(c3nc(Cl)ncc3F)C[C@@H]12)c1ccc2ncnn2c1` [Example 217, N-(2-((1R,5S,6s)-3-(2-chloro-5-fluoropyrimidin-4-yl)-3-azabicyclo[3.1.0]hexan-6-yl)ethyl)-[1,2,4]triazolo[1,5-a]pyridine-6-carboxamide], the IC50 under setting [1] was in the range of 0.01 to 0.49 µM. As to `O=C(CCc1ccccn1)NCC[C@@H]1[C@H]2CN(c3nc(Cl)ncc3F)C[C@@H]12` [Example 218, N-(2-((1R,5S,6s)-3-(2-chloro-5-fluoropyrimidin-4-yl)-3-azabicyclo[3.1.0]hexan-6-yl)ethyl)-3-(pyridin-2-yl)propanamide], the IC50 under setting [1] is 0.01 to 0.49 µM.

For `O=C(COc1cccnc1)NCC[C@@H]1[C@H]2CN(c3nc(Cl)ncc3F)C[C@@H]12` [Example 219, N-(2-((1R,5S,6s)-3-(2-chloro-5-fluoropyrimidin-4-yl)-3-azabicyclo[3.1.0]hexan-6-yl)ethyl)-2-(pyridin-3-yloxy)acetamide], the IC50 under setting [1] lay in the range of 0.01 to 0.49 µM. On the same count and under the same terms, the value for `O=C(NCC[C@@H]1[C@H]2CN(c3nc(Cl)ncc3F)C[C@@H]12)c1cc2c(nc3sccn32)s1` [Example 220, N-(2-((1R,5S,6s)-3-(2-chloro-5-fluoropyrimidin-4-yl)-3-azabicyclo[3.1.0]hexan-6-yl)ethyl)thieno[2′,3′:4,5]imidazo[2,1-b]thiazole-2-carboxamide] was 0.01 to 0.49 µM. Still for that read-out and setting: the value for `O=C(NCC[C@@H]1[C@H]2CN(c3nc(Cl)ncc3F)C[C@@H]12)c1cc2ccncc2o1` [Example 221, N-(2-((1R,5S,6s)-3-(2-chloro-5-fluoropyrimidin-4-yl)-3-azabicyclo[3.1.0]hexan-6-yl)ethyl)furo[2,3-c]pyridine-2-carboxamide] was 0.01 to 0.49 µM. Still for that read-out and setting: the value for `O=C(NCC[C@@H]1[C@H]2CN(c3nc(Cl)ncc3F)C[C@@H]12)c1cc2ccncc2s1` [Example 223, N-(2-((1R,5S,6s)-3-(2-chloro-5-fluoropyrimidin-4-yl)-3-azabicyclo[3.1.0]hexan-6-yl)ethyl)thieno[2,3-c]pyridine-2-carboxamide] was 0.01 to 0.49 µM.

For `O=C(NCC[C@@H]1[C@H]2CN(c3nc(Cl)ncc3F)C[C@@H]12)c1cnc2[nH]ncc2c1` [Example 224, N-(2-((1R,5S,6s)-3-(2-chloro-5-fluoropyrimidin-4-yl)-3-azabicyclo[3.1.0]hexan-6-yl)ethyl)-1H-pyrazolo[3,4-b]pyridine-5-carboxamide], the IC50 under setting [1] lay within 0.01 to 0.49 µM.

As for `O=C(NCC[C@@H]1[C@H]2CN(c3nc(Cl)ncc3F)C[C@@H]12)N1Cc2ccccc2C1` [Example 225, N-(2-((1R,5S,6s)-3-(2-chloro-5-fluoropyrimidin-4-yl)-3-azabicyclo[3.1.0]hexan-6-yl)ethyl)isoindoline-2-carboxamide], the IC50 under setting [1] was under 0.01 µM.

Consider `O=C(NCC[C@@H]1[C@H]2CN(c3nc(Cl)ncc3F)C[C@@H]12)N1Cc2ccncc2C1` [Example 226, N-(2-((1R,5S,6s)-3-(2-chloro-5-fluoropyrimidin-4-yl)-3-azabicyclo[3.1.0]hexan-6-yl)ethyl)-1H-pyrrolo[3,4-c]pyridine-2(3H)-carboxamide], for which, under setting [1], the IC50 fell in the range of 0.01 to 0.49 µM. Turning to `O=C(NCC[C@@H]1[C@H]2CN(c3nc(Cl)ncc3F)C[C@@H]12)N1Cc2cccnc2C1` [Example 227, N-(2-((1R,5S,6s)-3-(2-chloro-5-fluoropyrimidin-4-yl)-3-azabicyclo[3.1.0]hexan-6-yl)ethyl)-5H-pyrrolo[3,4-b]pyridine-6(7H)-carboxamide], under setting [1], the IC50 is 0.01 to 0.49 µM. As for `N#CN=C(NCC[C@@H]1[C@H]2CN(C(=O)c3ccccc3)C[C@@H]12)Nc1ccncc1` [Example 228, (E)-1-(2-((1R,5S,6s)-3-benzoyl-3-azabicyclo[3.1.0]hexan-6-yl)ethyl)-2-cyano-3-(pyridin-4-yl)guanidine], under setting [2], the IC50 lay in the range of 0.01 to 0.49 µM.

`CC1(OC(=O)N2C[C@@H]3[C@@H](CCN/C(=N\C#N)Nc4ccncc4)[C@@H]3C2)COC1` [Example 229, (1R,5S,6s)-3-methyloxetan-3-yl 6-(2-((E)-2-cyano-3-(pyridin-4-yl)guanidino)ethyl)-3-azabicyclo[3.1.0]hexane-3-carboxylate]: the IC50 under setting [2] is 0.01 to 0.49 µM.

As for `CC1(OC(=O)N2C[C@@H]3[C@@H](CCNC(=O)N4Cc5ccccc5C4)[C@@H]3C2)COC1` [Example 230, (1R,5S,6s)-3-methyloxetan-3-yl 6-(2-(isoindoline-2-carboxamido)ethyl)-3-azabicyclo[3.1.0]hexane-3-carboxylate], the IC50 under setting [2] lay within 0.01 to 0.49 µM. Still for that read-out and setting: to `CC(C)(C)OC(=O)N1C[C@@H]2[C@@H](CNC(=O)c3cc(-c4cccnc4)on3)[C@@H]2C1` [Example 231, (1R,5S,6s)-tert-butyl 6-((5-(pyridin-3-yl)isoxazole-3-carboxamido)methyl)-3-azabicyclo[3.1.0]hexane-3-carboxylate] belongs 1 to 29 µM; to `CC(C)(C)OC(=O)N1C[C@@H]2[C@@H](CNC(=O)/C=C/c3cccnc3)[C@@H]2C1` [Example 232, (1R,5S,6s)-tert-butyl 6-(((E)-3-(pyridin-3-yl)acrylamido)methyl)-3-azabicyclo[3.1.0]hexane-3-carboxylate], 0.01 to 0.49 µM. Turning to `CC(C)(C)OC(=O)N1C[C@@H]2[C@@H](CNC(=O)COc3cccnc3)[C@@H]2C1` [Example 233, (1R,5S,6s)-tert-butyl 6-((2-(pyridin-3-yloxy)acetamido)methyl)-3-azabicyclo[3.1.0]hexane-3-carboxylate], the IC50 under setting [2] is over 30 µM and the IC50 under setting [1] is 1 to 29 µM.

Regarding `CC(C)(C)OC(=O)N1C[C@@H]2[C@@H](CNC(=O)/C=C/c3ccc(N)nc3)[C@@H]2C1` [Example 234, (1R,5S,6s)-tert-butyl 6-(((E)-3-(6-aminopyridin-3-yl)acrylamido)methyl)-3-azabicyclo[3.1.0]hexane-3-carboxylate], the IC50 under setting [2] fell in the range of 1 to 29 µM. On the same count and under the same terms, the value for `CC(C)(C)OC(=O)N1C[C@@H]2[C@@H](CNC(=O)c3cc4ccncc4o3)[C@@H]2C1` [Example 235, (1R,5S,6s)-tert-butyl 6-((furo[2,3-c]pyridine-2-carboxamido)methyl)-3-azabicyclo[3.1.0]hexane-3-carboxylate] was 1 to 29 µM; that for `CC(C)(C)OC(=O)N1C[C@@H]2[C@@H](CNC(=O)c3cc4ccncc4s3)[C@@H]2C1` [Example 236, (1R,5S,6s)-tert-butyl 6-((thieno[2,3-c]pyridine-2-carboxamido)methyl)-3-azabicyclo[3.1.0]hexane-3-carboxylate] was over 30 µM. Regarding `O=C(/C=C/c1cccnc1)NC[C@@H]1[C@H]2CN(C(=O)c3ccccc3)C[C@@H]12` [Example 237, (E)-N-(((1R,5S,6s)-3-benzoyl-3-azabicyclo[3.1.0]hexan-6-yl)methyl)-3-(pyridin-3-yl)acrylamide], under setting [2], the IC50 lay in the range of 0.5 to 0.99 µM. Same read-out and setting: the value for `CC1(OC(=O)N2C[C@@H]3[C@@H](CNC(=O)/C=C/c4cccnc4)[C@@H]3C2)COC1` [Example 238, (1R,5S,6s)-3-methyloxetan-3-yl 6-(((E)-3-(pyridin-3-yl)acrylamido)methyl)-3-azabicyclo[3.1.0]hexane-3-carboxylate] was 1 to 29 µM. Take `CC1(OC(=O)N2C[C@@H]3[C@@H](CNC(=O)/C=C/c4ccc(N)nc4)[C@@H]3C2)COC1` [Example 239, (1R,5S,6s)-3-methyloxetan-3-yl 6-(((E)-3-(6-aminopyridin-3-yl)acrylamido)methyl)-3-azabicyclo[3.1.0]hexane-3-carboxylate]: under setting [2], the IC50 was in the range of 1 to 29 µM.

For the compound `Nc1ccc(/C=C/C(=O)NC[C@@H]2[C@H]3CN(C(=O)c4ccccc4)C[C@@H]23)cn1` [Example 240, (E)-3-(6-aminopyridin-3-yl)-N-(((1R,5S,6s)-3-benzoyl-3-azabicyclo[3.1.0]hexan-6-yl)methyl)acrylamide], under setting [2], the IC50 was 1 to 29 µM.

Regarding `CC(C)(C)OC(=O)N1C[C@@H]2[C@H](C1)[C@H]2CC1(NC(=O)/C=C/c2ccc(N)nc2)CC1` [Example 241, (1R,5S,6s)-tert-butyl 6-((1-((E)-3-(6-aminopyridin-3-yl)acrylamido)cyclopropyl)methyl)-3-azabicyclo[3.1.0]hexane-3-carboxylate], the IC50 under setting [2] is 1 to 29 µM. As to `CC(C)(C)OC(=O)N1C[C@@H]2[C@H](C1)[C@H]2CC1(NC(=O)/C=C/c2cccnc2)CC1` [Example 242, (1R,5S,6s)-tert-butyl 6-((1-((E)-3-(pyridin-3-yl)acrylamido)cyclopropyl)methyl)-3-azabicyclo[3.1.0]hexane-3-carboxylate], the IC50 under setting [2] is over 30 µM.

For the compound `O=C(/C=C/c1cccnc1)NCC[C@@H]1[C@H]2CN(Cc3ccccc3)C[C@@H]12` [Example 243, (E)-N-(2-((1R,5S,6s)-3-benzyl-3-azabicyclo[3.1.0]hexan-6-yl)ethyl)-3-(pyridin-3-yl)acrylamide], the IC50 under setting [1] lay in the range of 0.01 to 0.49 µM.

Regarding `O=C(/C=C/c1cccnc1)NCC[C@@H]1[C@H]2CN(Cc3ccc(C(F)(F)F)cc3)C[C@@H]12` [Example 244, (E)-3-(pyridin-3-yl)-N-(2-((1R,5S,6s)-3-(4-(trifluoromethyl)benzyl)-3-azabicyclo[3.1.0]hexan-6-yl)ethyl)acrylamide], the IC50 under setting [1] lay in the range of 0.01 to 0.49 µM.

In the case of `CC(C)N1C[C@@H]2[C@@H](CCNC(=O)/C=C/c3cccnc3)[C@@H]2C1` [Example 245, (E)-N-(2-((1R,5S,6s)-3-isopropyl-3-azabicyclo[3.1.0]hexan-6-yl)ethyl)-3-(pyridin-3-yl)acrylamide], the IC50 under setting [1] was 1 to 29 µM.

On to `O=C(/C=C/c1cccnc1)NCC[C@@H]1[C@H]2CN(CC3CCOCC3)C[C@@H]12` [Example 246, (E)-3-(pyridin-3-yl)-N-(2-((1R,5S,6s)-3-((tetrahydro-2H-pyran-4-yl)methyl)-3-azabicyclo[3.1.0]hexan-6-yl)ethyl)acrylamide], for which the IC50 under setting [1] lay in the range of 0.5 to 0.99 µM.

Take `O=C(/C=C/c1cccnc1)NCC[C@@H]1[C@H]2CN(Cc3ccc(F)cc3)C[C@@H]12` [Example 247, (E)-N-(2-((1R,5S,6s)-3-(4-fluorobenzyl)-3-azabicyclo[3.1.0]hexan-6-yl)ethyl)-3-(pyridin-3-yl)acrylamide]: the IC50 under setting [1] was 0.01 to 0.49 µM. On to `O=C(/C=C/c1cccnc1)NCC[C@@H]1[C@H]2CN(Cc3ccc(F)cc3F)C[C@@H]12` [Example 248, (E)-N-(2-((1R,5S,6s)-3-(2,4-difluorobenzyl)-3-azabicyclo[3.1.0]hexan-6-yl)ethyl)-3-(pyridin-3-yl)acrylamide], for which the IC50 under setting [1] lay in the range of 0.01 to 0.49 µM.
